# From patent publication US4486419A, “5,2',3',4',4",6"-Hexadeoxykanamycin and its 1-N-acylated derivative” (Zaidan Hojin Biseibutsu Kagaku Kenkyu Kai, priority 1982, dated 1984)
# How the values were obtained:
# [1] = tested on: Staphylococcus aureus FDA 209P; type: cell-based; conditions: FDA209P, nutrient agar, 37° C., 18 hours
# [2] = tested on: Staphylococcus aureus Smith; type: cell-based; conditions: nutrient agar, 37° C., 18 hours
# [3] = tested on: Staphylococcus epidermidis 109; type: cell-based; conditions: nutrient agar, 37° C., 18 hours
# [4] = tested on: Bacillus anthracis; assay: microbe, parasite or virus in culture; type: cell-based; conditions: 18 h
# [5] = tested on: Bacillus subtilis PCI 219; type: cell-based; conditions: PCI219, nutrient agar, 37° C., 18 hours
# [6] = tested on: Corynebacterium bovis 1810; assay: microbe, parasite or virus in culture; conditions: Corynebacterium bovis, 1810, 18 h
# Description: (§1) Thus, the minimum inhibitory concentrations (mcg/ml) of the hexadeoxykanamycin and of the hexadeoxyamikacin according to this invention against various microorganisms were determined according to serial dilution method on a nutrient agar medium at 37° C., the estimation being made after 18 hours incubation. For comparison purpose, the minimum inhibitory concentrations of amikacin were also determined in the same manner as stated above.
# [7] = tested on: Serratia marcescens; assay: microbe, parasite or virus in culture; conditions: 18 h
# Description: as §1
# [8] = tested on: Mycobacterium smegmatis ATCC 607; type: cell-based; conditions: Mycolicibacterium smegmatis, ATCC607; nutrient agar, 37° C., 18 hours
# [9] = tested on: Escherichia coli NIHJ; type: cell-based; conditions: nutrient agar, 37° C., 18 hours
# [10] = tested on: Escherichia coli K-12; type: cell-based; conditions: K12, nutrient agar, 37° C., 18 hours
# [11] = tested on: Escherichia coli K-12 R5; type: cell-based; conditions: K12R5, 18 h
# [12] = tested on: Escherichia coli K-12 R 388; type: cell-based; conditions: K12R388, 18 h
# [13] = tested on: Escherichia coli K-12 ML 1410; type: cell-based; conditions: K12ML1410, nutrient agar, 37° C., 18 hours
# [14] = tested on: Escherichia coli K-12 ML 1410 R81; assay: microbe, parasite or virus in culture; type: cell-based; conditions: 18 h
# [15] = tested on: Escherichia coli K-12 LA 290 R56; assay: microbe, parasite or virus in culture; type: cell-based; conditions: K12LA290R56, 18 h
# [16] = tested on: Escherichia coli K-12 LA 290 R64; assay: microbe, parasite or virus in culture; type: cell-based; conditions: K12LA290R64, 18 h
# [17] = tested on: Escherichia coli W677; type: cell-based; conditions: nutrient agar, 37° C., 18 hours
# [18] = tested on: Escherichia coli JR66/W677; type: cell-based; conditions: JR66/W677, 18 h
# [19] = tested on: Escherichia coli K-12 C 600R135; assay: microbe, parasite or virus in culture; type: cell-based; conditions: K12C600R135, 18 h
# [20] = tested on: Escherichia coli JR255; assay: microbe, parasite or virus in culture; type: cell-based; conditions: JR255, 18 h
# [21] = tested on: Shigella dysenteriae JS 11910; type: cell-based; conditions: JS11910, 18 h
# [22] = tested on: Shigella flexneri 4b JS11811; type: cell-based; conditions: 4BJS11811, nutrient agar, 37° C., 18 hours
# [23] = tested on: Shigella sonnei JS11746; type: cell-based; conditions: nutrient agar, 37° C., 18 hours
# [24] = tested on: Salmonella typhi T-63; type: cell-based; conditions: Salmonella enterica, 18 h
# [25] = tested on: Proteus vulgaris OX19; type: cell-based; conditions: nutrient agar, 37° C., 18 hours
# [26] = tested on: Proteus rettgeri GN311; type: cell-based; conditions: Providencia rettgeri, nutrient agar, 37° C., 18 hours
# [27] = tested on: Proteus rettgeri GN466; type: cell-based; conditions: Providencia rettgeri, nutrient agar, 37° C., 18 hours
# [28] = tested on: Serratia SOU; type: cell-based; conditions: nutrient agar, 37° C., 18 hours
# [29] = tested on: Serratia 4; type: cell-based; conditions: nutrient agar, 37° C., 18 hours
# [30] = tested on: Providencia Pv 16; type: cell-based; conditions: PV16, nutrient agar, 37° C., 18 hours
# [31] = tested on: Providencia 2991; type: cell-based; conditions: nutrient agar, 37° C., 18 hours
# [32] = tested on: Pseudomonas aeruginosa A3; type: cell-based; conditions: A3, 18 h
# [33] = tested on: Pseudomonas aeruginosa No. 12; type: cell-based; conditions: nutrient agar, 37° C., 18 hours
# [34] = tested on: Pseudomonas aeruginosa H9; type: cell-based; conditions: H9, 18 h
# [35] = tested on: Pseudomonas aeruginosa H11; type: cell-based; conditions: nutrient agar, 37° C., 18 hours
# [36] = tested on: Pseudomonas aeruginosa TI-13; type: cell-based; conditions: TI13, nutrient agar, 37° C., 18 hours
# [37] = tested on: Pseudomonas aeruginosa GN315; type: cell-based; conditions: nutrient agar, 37° C., 18 hours
# [38] = tested on: Pseudomonas aeruginosa 99; type: cell-based; conditions: Pseudomonas aeruginosa, 99, 18 h
# [39] = tested on: Pseudomonas aeruginosa B-13; type: cell-based; conditions: B13, 18 h
# [40] = tested on: Pseudomonas aeruginosa 21-75; type: cell-based; conditions: 2175, nutrient agar, 37° C., 18 hours
# [41] = tested on: Pseudomonas aeruginosa PST1; type: cell-based; conditions: nutrient agar, 37° C., 18 hours
# [42] = tested on: Pseudomonas aeruginosa ROS134/PU21; type: cell-based; conditions: ROS134/PU21, 18 h
# [43] = tested on: Pseudomonas aeruginosa K-Ps102; type: cell-based; conditions: KPS102, 18 h
compound,measurement,setting,value
"C[C@@H]1C[C@H](N)[C@@H](O)[C@@H](O[C@@H]2C[C@H](O[C@@H]3CCC[C@@H](CN)O3)[C@@H](N)C[C@H]2NC(=O)[C@@H](O)CCN)O1 [Hexadeoxyamikacin, 1-N-[(S)-4-amino-2-hydroxybutyryl]-5,2',3',4',4"",6""-hexadeoxykanamycin]",MIC,[1],0.78 µg/mL
same,MIC,[2],1.56 µg/mL
same,MIC,[3],1.56 µg/mL
same,MIC,[4],1.56 µg/mL
same,MIC,[5],0.78 µg/mL
same,MIC,[6],6.25 µg/mL
same,MIC,[7],6.25 µg/mL
same,MIC,[8],1.56 µg/mL
same,MIC,[9],1.56 µg/mL
same,MIC,[10],0.78 µg/mL
same,MIC,[11],100 µg/mL
same,MIC,[12],0.78 µg/mL
same,MIC,[13],3.13 µg/mL
same,MIC,[14],3.13 µg/mL
same,MIC,[15],1.56 µg/mL
same,MIC,[16],3.13 µg/mL
same,MIC,[17],0.78 µg/mL
same,MIC,[18],3.13 µg/mL
same,MIC,[19],1.56 µg/mL
same,MIC,[20],0.78 µg/mL
same,MIC,[21],6.25 µg/mL
same,MIC,[22],6.25 µg/mL
same,MIC,[23],3.13 µg/mL
same,MIC,[24],0.78 µg/mL
same,MIC,[25],0.78 µg/mL
same,MIC,[26],1.56 µg/mL
same,MIC,[27],1.56 µg/mL
same,MIC,[28],50 µg/mL
same,MIC,[29],12.5 µg/mL
same,MIC,[30],3.13 µg/mL
same,MIC,[31],6.25 µg/mL
same,MIC,[32],0.78 µg/mL
same,MIC,[33],25 µg/mL
same,MIC,[34],50 µg/mL
same,MIC,[35],100 µg/mL
same,MIC,[36],12.5 µg/mL
same,MIC,[37],> 100 µg/mL
same,MIC,[38],50 µg/mL
same,MIC,[39],50 µg/mL
same,MIC,[40],100 µg/mL
same,MIC,[41],50 µg/mL
same,MIC,[42],> 100 µg/mL
same,MIC,[43],50 µg/mL
"C[C@@H]1C[C@H](N)[C@@H](O)[C@@H](O[C@@H]2C[C@H](O[C@@H]3CCC[C@@H](CN)O3)[C@@H](N)C[C@H]2N)O1 [Hexadeoxykanamycin, 5,2',3',4',4"",6""-hexadeoxykanamycin]",MIC,[1],1.56 µg/mL
same,MIC,[2],0.78 µg/mL
same,MIC,[3],3.13 µg/mL
same,MIC,[4],1.56 µg/mL
same,MIC,[5],0.78 µg/mL
same,MIC,[6],6.25 µg/mL
same,MIC,[7],6.25 µg/mL
same,MIC,[8],0.78 µg/mL
same,MIC,[9],3.13 µg/mL
same,MIC,[10],1.56 µg/mL
same,MIC,[11],> 100 µg/mL
same,MIC,[12],1.56 µg/mL
same,MIC,[13],3.13 µg/mL
same,MIC,[14],25 µg/mL
same,MIC,[15],12.5 µg/mL
same,MIC,[16],25 µg/mL
same,MIC,[17],1.56 µg/mL
same,MIC,[18],> 100 µg/mL
same,MIC,[19],1.56 µg/mL
same,MIC,[20],1.56 µg/mL
same,MIC,[21],6.25 µg/mL
same,MIC,[22],6.25 µg/mL
same,MIC,[23],3.13 µg/mL
same,MIC,[24],0.78 µg/mL
same,MIC,[25],1.56 µg/mL
same,MIC,[26],0.78 µg/mL
same,MIC,[27],1.56 µg/mL
same,MIC,[28],> 100 µg/mL
same,MIC,[29],25 µg/mL
same,MIC,[30],12.5 µg/mL
same,MIC,[31],50 µg/mL
same,MIC,[32],3.13 µg/mL
same,MIC,[33],50 µg/mL
same,MIC,[34],100 µg/mL
same,MIC,[35],> 100 µg/mL
same,MIC,[36],50 µg/mL
same,MIC,[37],> 100 µg/mL
same,MIC,[38],> 100 µg/mL
same,MIC,[39],> 100 µg/mL
same,MIC,[40],> 100 µg/mL
same,MIC,[41],> 100 µg/mL
same,MIC,[42],> 100 µg/mL
same,MIC,[43],> 100 µg/mL
